The source of these data is patent US10968225B2, “Compounds and compositions for the treatment of cystic fibrosis” (Fondazione Istituto Italiano Di Tecnologia, priority 2017, dated 2021).

A value given as a limit tells only on which side of the number the result lay.

This test deals with T1, mutant CFTR (Homo sapiens, UniProt P13569, DEL508-508).
T1 construct: expressed in transfected cells
T1 sequence (P13569 with tags, fused parts or gaps DEL508-508): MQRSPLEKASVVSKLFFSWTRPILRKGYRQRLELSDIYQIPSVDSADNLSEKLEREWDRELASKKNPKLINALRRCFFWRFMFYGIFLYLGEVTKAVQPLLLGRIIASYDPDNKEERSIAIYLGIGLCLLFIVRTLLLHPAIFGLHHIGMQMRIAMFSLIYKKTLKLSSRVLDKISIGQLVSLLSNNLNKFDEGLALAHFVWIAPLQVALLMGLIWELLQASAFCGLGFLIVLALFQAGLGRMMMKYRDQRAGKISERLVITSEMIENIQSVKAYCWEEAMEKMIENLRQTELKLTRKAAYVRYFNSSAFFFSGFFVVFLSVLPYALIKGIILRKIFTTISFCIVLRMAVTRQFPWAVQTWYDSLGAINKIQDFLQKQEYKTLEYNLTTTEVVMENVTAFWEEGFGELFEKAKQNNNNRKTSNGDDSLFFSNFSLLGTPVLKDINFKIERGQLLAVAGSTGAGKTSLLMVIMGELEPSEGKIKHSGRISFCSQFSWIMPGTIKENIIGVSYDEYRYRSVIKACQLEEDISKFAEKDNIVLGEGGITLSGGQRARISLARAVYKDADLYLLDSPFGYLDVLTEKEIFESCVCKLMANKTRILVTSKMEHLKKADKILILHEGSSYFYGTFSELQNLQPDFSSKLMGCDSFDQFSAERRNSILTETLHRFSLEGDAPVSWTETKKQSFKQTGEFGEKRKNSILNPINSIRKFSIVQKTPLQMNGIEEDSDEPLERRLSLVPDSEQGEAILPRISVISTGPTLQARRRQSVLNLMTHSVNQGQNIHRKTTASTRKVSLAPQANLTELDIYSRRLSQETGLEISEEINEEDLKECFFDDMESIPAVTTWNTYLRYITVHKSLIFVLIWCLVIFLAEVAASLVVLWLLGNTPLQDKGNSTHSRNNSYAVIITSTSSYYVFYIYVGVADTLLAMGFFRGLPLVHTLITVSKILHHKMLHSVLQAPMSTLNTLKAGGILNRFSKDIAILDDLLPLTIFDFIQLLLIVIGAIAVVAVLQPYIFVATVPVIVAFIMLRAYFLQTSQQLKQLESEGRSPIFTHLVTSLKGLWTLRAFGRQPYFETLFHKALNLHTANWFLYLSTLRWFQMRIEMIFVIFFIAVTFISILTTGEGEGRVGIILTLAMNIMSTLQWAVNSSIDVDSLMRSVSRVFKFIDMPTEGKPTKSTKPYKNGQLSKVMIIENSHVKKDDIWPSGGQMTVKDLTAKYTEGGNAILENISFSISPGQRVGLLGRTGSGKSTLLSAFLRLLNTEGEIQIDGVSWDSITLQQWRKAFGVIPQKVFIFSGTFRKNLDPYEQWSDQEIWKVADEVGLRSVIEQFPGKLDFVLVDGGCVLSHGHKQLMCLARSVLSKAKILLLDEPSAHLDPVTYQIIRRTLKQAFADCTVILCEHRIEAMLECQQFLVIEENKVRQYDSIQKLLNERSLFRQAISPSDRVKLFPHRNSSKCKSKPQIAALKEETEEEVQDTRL
Briefly: Fluorescence (HS-YFP) assay for CFTR activity, corrector assay. It counts as cell-based. As to conditions: CFBE41o- and FRT cells with stable expression of mutant CFTR, read-out: activity (EC50).
As to `Cc1noc(C)c1S(=O)(=O)N1CCc2c(c(C(F)(F)F)nn2-c2cccc(C(=O)N(C)c3ccc4c(c3)OC(F)(F)O4)c2)C1` [Compound 096, N-(2,2-Difluoro-1,3-benzodioxol-5-yl)-3-[5-(3,5-dimethylisoxazol-4-yl)sulfonyl-3-(trifluoromethyl)-6,7-dihydro-4H-pyrazolo[4,3-c]pyridin-1-yl]-N-methyl-benzamide], the EC50 is < 1000 nM.

On to `CC(C)c1nn(-c2cccc(C(=O)N(C)c3ccc4c(c3)OC(F)(F)O4)c2)c2c1CCCC2` [Compound 102, N-(2,2-difluoro-1,3-benzodioxol-5-yl)-3-(3-isopropyl-4,5,6,7-tetrahydroindazol-1-yl)-N-methyl-benzamide], for which the EC50 was in the range of 1000 to 2000 nM.

For `Cc1nn(-c2cccc(C(=O)N(C)c3ccc4c(c3)OC(F)(F)O4)c2)c2c1CCCC2` [Compound 103, N-(2,2-Difluoro-1,3-benzodioxol-5-yl)-N-methyl-3-(3-methyl-4,5,6,7-tetrahydroindazol-1-yl)benzamide], the EC50 is > 2000 nM.

Consider `CN(C(=O)c1cccc(-n2nc(C(F)(F)F)c3c2C(Oc2ccc(C(=O)O)cc2)CCC3)c1)c1ccc2c(c1)OC(F)(F)O2` (centres unmarked) [Compound 109, 4-[[1-[3-[(2,2-Difluoro-1,3-benzodioxol-5-yl)-methyl-carbamoyl]phenyl]-3-(trifluoromethyl)-4,5,6,7-tetrahydroindazol-7-yl]oxy]benzoic acid], for which the half-maximal effective concentration (EC50) is < 1000 nM.

As for `Cc1nn(-c2cccc(C(=O)N(C)c3ccc4c(c3)OCO4)c2)c2c1CCCC2` [Compound 132, N-(1,3-Benzodioxol-5-yl)-N-methyl-3-(3-methyl-4,5,6,7-tetrahydroindazol-1-yl)benzamide], the EC50 lay in the range of 1000 to 2000 nM.

Take `CC(C)c1nn(-c2cccc(C(=O)N(C)c3ccc4c(c3)OCO4)c2)c2c1CCCC2` [Compound 133, N-(1,3-Benzodioxol-5-yl)-3-(3-isopropyl-4,5,6,7-tetrahydroindazol-1-yl)-N-methyl-benzamide]: the 50% effective concentration (EC50) is < 1000 nM.

For `CN(C(=O)c1cccc(-n2nc(C(F)(F)F)c3c2CCN(CCCC(=O)O)C3)c1)c1ccc2c(c1)OCO2` [Compound 135, 4-[1-[3-[1,3-Benzodioxol-5-yl(methyl)carbamoyl]phenyl]-3-(trifluoromethyl)-6,7-dihydro-4H-pyrazolo[4,3-c]pyridin-5-yl]butanoic acid], the EC50 is > 2000 nM.

Take `Cc1nc2ccc(N(C)C(=O)c3cccc(-n4nc(C(F)(F)F)c5c4CCN(S(=O)(=O)c4c(C)noc4C)C5)c3)cc2o1` [Compound 137, 3-[5-(3,5-Dimethylisoxazol-4-yl)sulfonyl-3-(trifluoromethyl)-6,7-dihydro-4H-pyrazolo[4,3-c]pyridin-1-yl]-N-methyl-N-(2-methyl-1,3-benzoxazol-6-yl)benzamide]: the EC50 was < 1000 nM.

As for `Cc1nc2cc(F)c(N(C)C(=O)c3cccc(-n4nc(C(F)(F)F)c5c4CCN(S(=O)(=O)c4c(C)noc4C)C5)c3)cc2o1` [Compound 138, 3-[5-(3,5-Dimethylisoxazol-4-yl)sulfonyl-3-(trifluoromethyl)-6,7-dihydro-4H-pyrazolo[4,3-c]pyridin-1-yl]-N-(5-fluoro-2-methyl-1,3-benzoxazol-6-yl)-N-methyl-benzamide], the EC50 was < 1000 nM.

Turning to `CN(C(=O)c1cccc(-n2nc(C(F)(F)F)c3c2CCN(C2CC(C(=O)O)C2)C3)c1)c1ccc2c(c1)OCO2` (centres unmarked) [Compound 140, 3-[1-[3-[1,3-Benzodioxol-5-yl(methyl)carbamoyl]phenyl]-3-(trifluoromethyl)-6,7-dihydro-4H-pyrazolo[4,3-c]pyridin-5-yl]cyclobutanecarboxylic acid], the EC50 was > 2000 nM.

In the case of `CN(C(=O)c1cccc(-n2nc(C(F)(F)F)c3c2CCN(C(=O)C(C)(C)C)C3)c1)c1ccc2nccnc2c1` [Compound 141, 3-[5-(2,2-Dimethylpropanoyl)-3-(trifluoromethyl)-6,7-dihydro-4H-pyrazolo[4,3-c]pyridin-1-yl]-N-methyl-N-quinoxalin-6-yl-benzamide], the EC50 is < 1000 nM.
